Key:
MAO-B [1] = target: T1, MAO-B (Homo sapiens, UniProt P27338); assay: MAO-B inhibition, kynuramine method; assay type: biochemical
T1 sequence (P27338 1-520): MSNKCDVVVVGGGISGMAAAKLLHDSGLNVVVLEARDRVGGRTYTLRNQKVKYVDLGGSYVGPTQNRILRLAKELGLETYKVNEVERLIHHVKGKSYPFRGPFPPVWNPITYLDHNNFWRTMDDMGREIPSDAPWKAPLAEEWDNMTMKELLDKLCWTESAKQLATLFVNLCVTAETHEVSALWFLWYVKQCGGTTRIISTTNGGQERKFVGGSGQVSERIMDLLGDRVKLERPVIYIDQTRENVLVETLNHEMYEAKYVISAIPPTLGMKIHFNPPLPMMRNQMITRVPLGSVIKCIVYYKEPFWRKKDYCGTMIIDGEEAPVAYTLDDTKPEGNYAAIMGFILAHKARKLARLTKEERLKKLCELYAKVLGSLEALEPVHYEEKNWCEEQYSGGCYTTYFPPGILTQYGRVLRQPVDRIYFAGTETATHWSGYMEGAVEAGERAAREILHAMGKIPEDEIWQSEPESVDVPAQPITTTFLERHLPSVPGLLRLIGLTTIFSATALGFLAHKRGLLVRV

MAO-A = target: T2, MAO-A (Homo sapiens, UniProt P21397); assay: MAO-A inhibition, kynuramine method; assay type: biochemical; details: at the concentration of 10.0 μM; n.a. = no active, percent inhibition <5.0%; read-out: %Inhibition MAO-A
T2 sequence (P21397 1-527): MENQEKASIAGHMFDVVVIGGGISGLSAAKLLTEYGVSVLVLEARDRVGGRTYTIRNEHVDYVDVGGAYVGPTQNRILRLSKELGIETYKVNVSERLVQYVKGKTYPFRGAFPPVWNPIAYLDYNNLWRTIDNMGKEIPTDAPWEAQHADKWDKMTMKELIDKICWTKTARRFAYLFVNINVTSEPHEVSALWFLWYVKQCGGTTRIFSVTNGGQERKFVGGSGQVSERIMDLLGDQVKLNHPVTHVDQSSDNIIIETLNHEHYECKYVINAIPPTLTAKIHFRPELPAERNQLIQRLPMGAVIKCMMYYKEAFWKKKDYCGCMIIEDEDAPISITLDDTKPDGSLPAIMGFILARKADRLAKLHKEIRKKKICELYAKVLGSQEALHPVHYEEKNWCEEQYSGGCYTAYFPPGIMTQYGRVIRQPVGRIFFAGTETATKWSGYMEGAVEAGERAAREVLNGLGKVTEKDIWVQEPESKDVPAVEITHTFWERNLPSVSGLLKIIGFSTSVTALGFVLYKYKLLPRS

[2] = Parallel artificial membrane permeation assay for blood-brain barrier (PAMPA-BBB); assay type: in vitro ADME
Description: Porcine brain lipid solution (4 µL, 20 mg/mL in n-dodecane) was added dropwise to a filter membrane. Then the membrane was placed still at room temperature for 5 min to form an artificial biomembrane. When this bionics membrane was formed, test compound solution (350 µL, 100 µg/mL) was added to the donor well which was over the artificial biomembrane, and the mixture of PBS and Ethanol (200 µL, 70/30, v/v) was added to receptor well which is under the bionics membrane. Then, the “sandwich” was incubated at 25 °C for 18 h. After incubation, 150 µL solution in both donor well and receptor well were taken out and added to a 96-well quartz cuvette, and the absorbance of the mixture at 200–800 nm was measured. The Pe value was calculated according to the formula depicted by the literature.

[3] = Metal-chelating study by UV spectra; assay type: physicochemical; details: 75.0 μM in methanol; shifted from 335.5 nm
Description: Particularly, after the addition of FeSO4, maximum increase in absorption was detected. Besides, after the addition of CuCl2, maximum absorption peak shifted from 335.5 to 382.0 nm.
UV spectrum method was conducted to clarify the metal chelating ability of 2-(4-(benzyloxy)-5-(hydroxyl) phenyl) benzothiazole derivatives. Test compound solution (1.0 ml, 75 µM in methanol) and metal ion solution (1.0 ml, 75 µM in methanol) were added to a vial. The vial was placed at room temperature for 2 h. Then, the mixture was removed from the vial to a quartz cell. After transfer, the absorbance of the mixture at 200–800 nm was measured by using UV spectrophotometer (Shimadzu UV-1900i).

MAO-B [4] = target: T1, MAO-B; assay: Reversibility study of MAO-B inhibition by dialysis method; assay type: biochemical
Description: The mixture was incubated at 37 °C for 30 min and transferred to dialysis bag (MWCO: 10 000, flattening width: 24 mm, length: 8–10 cm). Then, this dialysis bag was placed in 200 ml PBS for 24 h, and the outer PBS was replaced with fresh at 3 and 7 h, respectively. As for the undialysis group, the mixture was placed at 4 °C for 24 h. After dialysis, the mixtures (40 µL) in the dialysis bag were taken out to measure the catalytic activity, and the test method was similar with the inhibition experiment of MAOs. […] The test compound solution was replaced with PBS buffer at the same volume in the blank group.

[5] = system: ROS release in LPS-treated BV-2 cells; assay: LPS-induced ROS release in BV-2 cells (DCFH-DA probe); assay type: cell-based; details: Mus musculus, LPS 1.0 µg/mL, read-out: inhibition rate of LPS-induced ROS release
Description: The inhibitory effect of 3h on LPS-induced ROS release in BV-2 cells in vitro was detected by using 2′,7′-dichlorofluorescein diacetate (DCFH-DA) as probe to quantify the ROS level in LPS-treated BV-2 cells. Noticeably, the fluorescence intensity of control group was relatively low, indicating low level of ROS. […] The fluorescence values were further detected by using microplate reader (Figure 9(B)), and then the inhibition rates were calculated. […] BV-2 cells were incubated with test compound solution (10 µL) for 30 min, then LPS (10 µL, 1.0 µg/ml in PBS) was added to each well, and each well would be incubated for another 30 min at 37 °C. […] The fluorescence was measured with excitation and emission wavelengths at 488 and 525 nm on an inverted fluorescence microscope.

[6] = Stoichiometry of 3h-Fe^2+ complex by molar ratio method; assay type: physicochemical; details: absorbance at 385 nm; FeSO4 0–187.5 µM; 3h 75 µM in methanol
Description: Because Fe^2+ played a crucial role in the pathogenesis of PD, the stoichiometry of 3h-Fe^2+ complex was further measured by using molar ratio method. 3h was incubated with various concentrations of FeSO4 (0–187.5 µM), and the electronic spectra were detected.
As the Fe^2+ played important role in the pathogenetic process of PD, the stoichiometry of 3h-Fe^2+ complex was detected by using molar ratio method. In detail, test compound solution (1.0 ml, 75 µM in methanol) was incubated with Fe^2+ solution (1.0 ml, 7.5–187.5 µM in methanol) at 37 °C for 30 min. Then, the mixture was removed from the vial to a quartz cell, and the absorbance of mixture at 200–800 nm was measured by using UV spectrophotometer (Shimadzu UV-1900i).

MAO-B [7] = target: T1, MAO-B; assay: Kinetic study of MAO-B inhibition (Lineweaver-Burk plots); assay type: biochemical
Description: Kinetic study[35]^,[36] was conducted to figure out the MAO-B inhibitory mechanism of 2-(4-(benzyloxy)-5-(hydroxyl) phenyl) benzothiazole derivatives, with 3h as the test compound. […] The graphical of the reciprocal Lineweaver-Burk plots was depicted in Figure 2(A).
The kinetic study of 3h was conducted by the method which is similar with the inhibition experiment of MAOs. Different concentrations of 3h (0.124, 0.062, and 0.031 µM) and kynuramine (15, 30, 60, and 90 µM) solutions were selected. The control experiment was performed without 3h. The method of data analysis has been described previously.

In the case of `Oc1cc(OCc2ccc(F)cc2)ccc1-c1nc2ccccc2s1` [3h, 2-(Benzo[d]thiazol-2-yl)-5-((4-fluorobenzyl)oxy)phenol], the IC50 (MAO-B [1]) is reported as 62 ± 5 nM, the inhibition at 10 µM (MAO-A) is reported as 39.7 ± 0.54% and the “Prediction of penetration into CNS” value [2] is reported as “CNS+ (High BBB permeation predicted (CNS +) Pe> 3.44)”. The Pe ([2]; PBS/EtOH (70:30), mean ± SD of three independent experiments) was 4.03 ×10⁻⁶ cm/s, the Papp at 18 h, 100 µg/mL ([2]; PBS/EtOH (70:30), mean ± SD of three independent experiments, read-out: Pe) was 4.03 ± 0.14 ×10⁻⁶ cm/s and the “maximum absorption peak after the addition of CuCl2” value [3] was 382.0 nm. The MAO-B inhibitory mode (MAO-B [4]; classified by MAO-B catalytic activity in dialysis group) was “reversible (reversible inhibition: MAO-B catalytic activity ≥ 80%)”, the “MAO-B catalytic activity, undialysis group” value (MAO-B [4]; test compound 4 × IC50, 4 °C for 24 h without dialysis) was 27.6% and the “MAO-B catalytic activity, dialysis group” value (MAO-B [4]; test compound 4 × IC50, dialysis 24 h) was 80.9%. The inhibition at […] ([5]; 2.5 µM) was 19.8%, the inhibition at 10 µM ([5]; 10.0 µM) was 78% and the “molar ratio at intersection of straight lines (molar ratio method)” value [6] was 1.65. For the same molecule, the MAO-B inhibition pattern (MAO-B [7]; Lineweaver-Burk plots) was “competitive” and the Ki (MAO-B [7]; from slopes of Lineweaver-Burk plots vs. inhibitor concentration, kynuramine substrate, read-out: competitive inhibition constant (Ki)) was 102 nM.

From publication PMC9897792, “Discovery of novel 2-(4-(benzyloxy)-5-(hydroxyl) phenyl) benzothiazole derivatives as multifunctional MAO-B inhibitors for the treatment of Parkinson’s disease” (Journal of Enzyme Inhibition and Medicinal Chemistry, 2023)
